In BindingDB's records for doi:10.7270/Q2F769WQ (University of Pittsburgh, 2007):
pIC50: −log10 of the molar value.

These compounds were tested against T1, Dual specificity protein phosphatase 1 (Homo sapiens, UniProt P28562) (assay: concentration-response of DUSP1 blockers – biochemical, in vitro, confirmation, dose response (AID 551)). Conditions: pH 7; 22 °C.
T1 sequence (P28562 whole entry): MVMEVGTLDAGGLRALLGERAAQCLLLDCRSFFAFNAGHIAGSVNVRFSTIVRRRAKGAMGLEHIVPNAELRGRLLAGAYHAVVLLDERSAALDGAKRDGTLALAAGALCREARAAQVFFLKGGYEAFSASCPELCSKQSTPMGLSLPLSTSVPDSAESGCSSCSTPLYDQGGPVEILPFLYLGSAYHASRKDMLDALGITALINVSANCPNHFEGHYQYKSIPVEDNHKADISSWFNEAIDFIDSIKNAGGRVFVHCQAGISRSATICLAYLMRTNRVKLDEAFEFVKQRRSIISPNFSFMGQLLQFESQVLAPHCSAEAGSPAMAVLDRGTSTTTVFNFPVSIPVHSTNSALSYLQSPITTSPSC

SMILES	pIC50
Cc1cccc(N2CCN(C(=O)c3cc4c(=O)[nH]c5ccccc5c4n3C)CC2)c1C [2-{[4-(2,3-dimethylphenyl)piperazin-1-yl]carbonyl}-1-methyl-1,5-dihydro-4H-pyrrolo[3,2-c]quinolin-4-one]	< 4.30
N#Cc1c(NC(=O)c2ccc(Br)o2)n(-c2ccccc2)c2nc3ccccc3nc12 [5-bromanyl-N-(3-cyano-1-phenyl-pyrrolo[3,2-b]quinoxalin-2-yl)furan-2-carboxamide]	4.86
Cc1ccc(S(=O)(=O)NCC(C)NS(=O)(=O)c2ccc(C)cc2)cc1 (stereo not given) [4-methyl-N-[2-(tosylamino)propyl]benzenesulfonamide]	< 4.30
O=C(CSc1nc2c(cnn2-c2ccccc2)c(=O)[nH]1)c1ccc(Cl)cc1 [MLS000091816]	< 4.30
CCOc1ccc2nc(Nc3nc4c(c(=O)[nH]3)CCC4)nc(C)c2c1 [2-[(6-ethoxy-4-methylquinazolin-2-yl)amino]-1,5,6,7-tetrahydrocyclopenta[d]pyrimidin-4-one]	< 4.30
Cc1ccc(C)c(-n2nnnc2SCC(=O)c2ccc3c(c2)NC(=O)CO3)c1 [6-[2-[1-(2,5-dimethylphenyl)tetrazol-5-yl]sulfanylacetyl]-4H-1,4-benzoxazin-3-one]	< 4.30
CN1Cc2cc(C(=O)c3cc(Cl)cc(CSc4ncccn4)c3O)cnc2NC1=O [6-[5-chloranyl-2-oxidanyl-3-(pyrimidin-2-ylsulfanylmethyl)phenyl]carbonyl-3-methyl-1,4-dihydropyrido[2,3-d]pyrimidin-2-one]	< 4.30
Cc1c(N=c2c(=O)c3ccccc3c2=O)c(=O)n(-c2ccccc2)n1C [MLS000105950]	5.05
COc1ccc(-n2c(NC(=O)c3ccco3)c(C#N)c3nc4ccccc4nc32)cc1 [MLS000079925]	4.82
O=C(Nc1ccc2nc(-c3ccco3)c(-c3ccco3)nc2c1)N1CCCCCC1	4.91
N#CC(C(=O)CSc1nnc(Cc2cccs2)n1C1CCCCC1)c1nc2ccccc2[nH]1 (stereo not given) [MLS000098387]	< 4.30
CC1CCCCC1NS(=O)(=O)c1ccc(S(=O)(=O)NCc2ccncc2)cc1 (stereo not given) [4-N-(2-methylcyclohexyl)-1-N-(pyridin-4-ylmethyl)benzene-1,4-disulfonamide]	< 4.30
CCCSc1nnc(NC(=O)c2sc3nc(-c4cccs4)ccc3c2N)s1 [3-amino-N-(5-propylsulfanyl-1,3,4-thiadiazol-2-yl)-6-thiophen-2-ylthieno[2,3-b]pyridine-2-carboxamide]	4.91
CC(C)(C)C(=O)c1sc(Nc2ccccc2)nc1N [1-(4-amino-2-anilino-1,3-thiazol-5-yl)-2,2-dimethyl-1-propanone]	< 4.30
COc1ccc(-n2nnnc2SCC(=O)Nc2ccc3c(c2)OCCO3)c(OC)c1 [MLS000071837]	< 4.30
Cn1c(=O)oc2cc(S(=O)(=O)NCCC(=O)NC3CCCC3)ccc21 [MLS000093068]	< 4.30
COc1ccc(Br)cc1C=c1sc2nc(-c3ccco3)nn2c1=O [5-[(5-bromanyl-2-methoxy-phenyl)methylidene]-2-(furan-2-yl)-[1,3]thiazolo[3,2-b][1,2,4]triazol-6-one]	5.35
COC(=O)CCCc1nc2ccccc2s1 [4-(1,3-benzothiazol-2-yl)butanoic acid methyl ester]	< 4.30
O=C1C=Cc2ccccc2C1=O [1,2-dihydronaphthalene-1,2-dione]	4.74
O=C(NC1CC1)c1c[nH]c2ccc(S(=O)(=O)Nc3cccc(C(F)(F)F)c3)cc2c1=O [MLS000046685]	< 4.30
O=C1CC(c2ccccc2)c2cc(O)ccc2O1 (stereo not given) [6-hydroxy-4-phenyl-3,4-dihydro-2H-1-benzopyran-2-one]	4.31
Cc1nn(Cc2ccccc2)c(C)c1NC(=O)CSc1nc2sc3c(c2c(=O)n1C)CCC3 [MLS000096728]	< 4.30
COc1ccc(-n2c(SCC(=O)N3CCCC3)nc3c([nH]c4ccccc43)c2=O)cc1 [SMR000018494]	< 4.30
Cc1ccc(NC(=O)CSc2nnc(-c3ccc(S(=O)(=O)N4CCCC4)cc3)o2)cc1C [MLS000071775]	< 4.30
Cc1cc2n(n1)SC(Nc1ccccc1)N2 (stereo not given) [(6-methyl-2,5-dihydropyrazolo[1,5-b][1,2,4]thiadiazol-2-yl)-phenyl-amine]	< 4.30
N#Cc1c(N)sc(=S)c2c1CCN(Cc1ccccc1)C2 [3-Amino-7-benzyl-1-thioxo-5,6,7,8-tetrahydro-1H-thiopyrano[3,4-c]pyridine-4-carbonitrile]	5.95
Cn1ncnc2c(=O)n(C)c(=O)nc1-2	6.74
Nc1ccc2ncccc2c1N [SMR000015817]	< 4.30

SMILES	pIC50
CCOc1ccc(-c2cc3nc(C4CCN(C(=O)OC(C)(C)C)CC4)c(C(=O)O)cn3n2)cc1 [2-(4-ethoxyphenyl)-5-[1-[(2-methylpropan-2-yl)oxy-oxomethyl]-4-piperidinyl]-6-pyrazolo[1,5-a]pyrimidinecarboxylic acid]	4.82
CCn1cc(C(=O)NC2CCC(C)CC2)c(=O)c2cc(S(=O)(=O)N3CCCCC3)ccc21 (stereo not given)	4.31
Cc1ccc(/C=C/C2=Cc3c(sc(NC(=O)CSc4nnc(N)[nH]4)c3C#N)C(C)(C)C2)o1 [2-[(5-azanyl-1H-1,2,4-triazol-3-yl)sulfanyl]-N-[3-cyano-7,7-dimethyl-5-[(E)-2-(5-methylfuran-2-yl)ethenyl]-6H-1-benzothiophen-2-yl]ethanamide]	5.03
Cc1ccc(Nc2nc(CSc3nnnn3-c3ccccc3)cc(=O)[nH]2)cc1 [2-[(4-methylphenyl)amino]-6-{[(1-phenyl-1H-tetrazol-5-yl)thio]methyl}-4(3H)-pyrimidinone]	< 4.30
O=C(c1ccc(-c2ccccc2)cc1)N1CCN(Cc2ccccn2)CC1 [(4-phenylphenyl)-[4-(2-pyridinylmethyl)-1-piperazinyl]methanone]	< 4.30
COc1ccc(-c2cc3nc(C4CCN(C(=O)OC(C)(C)C)CC4)c(C(=O)O)cn3n2)cc1 [2-(4-methoxyphenyl)-5-[1-[(2-methylpropan-2-yl)oxy-oxomethyl]-4-piperidinyl]-6-pyrazolo[1,5-a]pyrimidinecarboxylic acid]	4.57
c1ccc(SCc2nc(-c3ccncc3)no2)cc1 [4-{5-[(phenylthio)methyl]-1,2,4-oxadiazol-3-yl}pyridine]	< 4.30
Cc1ccc(C)n1-c1cccc(C(=O)O)c1	4.92
COc1ccc(S(=O)(=O)N2CCC(NC(=O)Nc3ccc(C)cc3)CC2)cc1 [1-[1-(4-Methoxy-benzenesulfonyl)-piperidin-4-yl]-3-p-tolyl-urea]	< 4.30
CCn1c(SCC(=O)Nc2nc3ccc(OC)cc3s2)nc2c1c(=O)n(C)c(=O)n2C [2-(7-Ethyl-1,3-dimethyl-2,6-dioxo-2,3,6,7-tetrahydro-1H-purin-8-ylsulfanyl)-N-(6-methoxy-benzothiazol-2-yl)-acetamide]	4.74
Cc1cccc(N2CCN(C(=O)Cc3c(C(=O)O)[nH]c4ccc(Cl)cc34)CC2)c1C [5-chloranyl-3-[2-[4-(2,3-dimethylphenyl)piperazin-1-yl]-2-oxidanylidene-ethyl]-1H-indole-2-carboxylic acid]	4.59
CCOC(=O)N1CCC(NC(=O)c2cccn3c(=O)c4cc(Br)ccc4nc23)CC1 [4-[(2-bromo-11-keto-pyrido[2,1-b]quinazoline-6-carbonyl)amino]piperidine-1-carboxylic acid ethyl ester]	< 4.30
O=C(CSc1nc2n[nH]cc2c(=O)n1-c1ccccc1)N1CCCc2ccccc21	< 4.30
O=C(NC1(O)C(=O)c2ccccc2C1=O)c1ccccc1 [N-(2-hydroxy-1,3-dioxo-2-indenyl)benzamide]	4.85
[O-]/[N+](=C\c1ccc(OC(F)F)cc1)c1ccccc1 [1-[4-(difluoromethoxy)phenyl]-N-phenylmethanimine oxide]	< 4.30
Nc1nc2c(s1)CCc1c-2cnn1-c1ccccc1 [MLS000085948]	< 4.30
CCCCNC(=O)CSc1nnc(-c2ccco2)n1C [MLS000033335]	< 4.30
CCCCCC#CCC#CCC#CCC#CCCCC(=O)O	5.19
CCOC(=O)c1ccc2c(c1)C1C=CCC1C(C(=O)O)N2 (stereo not given) [MLS-0025126.0001]	4.80
COC(=O)CCC(=O)Oc1ccc(OC(=O)CCC(=O)OC)cc1 [4-O-[4-(4-methoxy-4-oxobutanoyl)oxyphenyl] 1-O-methyl butanedioate]	< 4.30
O=C1C=C(NCc2ccc(Cl)c(Cl)c2)CC1 [3-[(3,4-dichlorobenzyl)amino]cyclopent-2-en-1-one]	< 4.30
CCn1nc(-c2cccs2)nc2c(=O)n(C)c(=O)nc1-2 [1-ethyl-6-methyl-3-thiophen-2-yl-pyrimido[5,4-e][1,2,4]triazine-5,7-dione]	6.80
Nc1c(N2CCCC2)cc(Cl)c2nonc12 [(7-chloro-5-pyrrolidino-benzofurazan-4-yl)amine]	< 4.30
CC1CCN(S(=O)(=O)c2ccc3c(c2)c(=O)c(C(=O)NC2CCCC2)cn3C)CC1 [MLS000095109]	< 4.30
O=C1C=Cc2ccccc2/C1=C/NC12CN3CCN(CN(C3)C1)C2 [MLS000071484]	< 4.30
CC(C)(C)N1C(=O)Cc2c1nc(N)c1c(N)nc(N3CCCCC3CO)c(C#N)c21 (stereo not given) [5,6-bis(azanyl)-3-tert-butyl-8-[2-(hydroxymethyl)piperidin-1-yl]-2-oxidanylidene-1H-pyrrolo[2,3-c][2,7]naphthyridine-9-carbonitrile]	< 4.30
COC(=O)C1C(C)=NC2=C(C(=O)c3ccccc32)C1c1ccc(-c2ccc(C(=O)O)cc2)o1 (stereo not given) [4-{5-[3-(methoxycarbonyl)-2-methyl-5-oxo-4,5-dihydro-1H-indeno[1,2-b]pyridin-4-yl]-2-furyl}benzoic acid]	< 4.30
